Data from US20060281174A1, “Methods for generating insulin-producing cells” (priority 2004, published 2006).

Tested on: Human MSCs and Pancl cells
Assay: Co-culture of human MSCs and Pancl cells in induction media with added factors to potentiate differentiation
Format: cell-based
Conditions: MSC/Pancl co-culture, induction media 1% ITS, 2% BSA in DMEM; 100 μM, 10 days
Description: Design: Human MSCs from Clontech (Palo Alto, CA), passage 4-6, and Pancl cells from ATCC, passage 2-6, were used in the experiment. 5 ×10ˆ5 cells for both cells were seeded in 10 cm tissue culture treated dishes in a 1:1 combination media of DMEM containing 10% FBS and a MSC growth media purchased from CAMBREX (Walkersville, MD). After 2-3 days of culture, the media was replaced by the induction media containing1% ITS, 2% BSA in DMEM. The proteasome inhibitor, Lactocystin, was added into the media at the final concentration of 100 μM to potentiate the differentiation for 10 days.
Design: Human MSCs from Clontech, passage 4-6, and Pancl cells from ATCC, passage 2-6, were used in the experiment. 5 ×10ˆ5 cells for both cells were seeded in 10 cm tissue culture treated dishes in a 1:1 media of DMEM containing 10% FBS, and a MSC growth media purchased from CAMBREX. After 2-3 days of culture, the media was replaced by the induction media containing 1% ITS, 2% BSA in DMEM for 10 days. A growth factor cocktail containing bFGF, EGF, Exendin-4 and Nicotinamide, was added into the media to potentiate the differentiation.
Design: Human MSCs from Clontech, passage 4-6, and Pancl cells from ATCC, passage 2-6, were used in the experiment. 5 ×10ˆ5 cells for both cells were seeded in 10 cm tissue culture treated dishes in a 1:1 media of DMEM with 10% FBS, and MSC growth media purchased from CAMBREX. […]

## CC(=O)N[C@@H](CSC(=O)[C@]1([C@@H](O)C(C)C)NC(=O)[C@H](C)[C@@H]1O)C(=O)O [Lactocystin]
  expression of insulin: No formation of clusters or expression of insulin
  formation of clusters: No formation of clusters
